Experiments:
[1] = tested on: A431 cells which overexpresses EGFR; assay: Flow cytometry assay of binding to A431 cells; type: cell-based; details: 100 nM, 30 min on ice; FIG. 5b and c (confocal and flow cytometry)
Method: FIG. 20 depicts the fluorescence intensity (measured by flow cytometry, λex=488 nm) of untreated A431 and MCF7 cells (ctrl) shown in dark grey fill (Blank), and cells treated with either GFP (100 nM, 30 min), or with ZEGFR-Fc-GFP (100 nM, 30 min) (shown by arrow), respectively. Forward scatter (FSC-A) versus side scatter (SSC-A) were used to gate intact cells.
To study binding capacities of ZEGFR-Fc-GFP, A-431 (ATCC, USA) and MCF-7 (ATCC, US) live cells were washed three times with PBS (HyClone, USA), trypsinized by 0.05% Trypsin-EDTA (Gibco, USA), and then resuspended in chilled DMEM (Gibco, USA) with 10% FBS (Gibco, USA). One million cells of each cell line were then incubated with ZEGFR-Fc-GFP (100 nM) and GFP (100 nM) on ice for 30 min. After incubation, the cells were washed with chilled PBS for three times and analyzed by the Fortessa X-20 flow cytometer (BD, USA). The cytometer was set to record 10,000 events per sample, to excite the fluorophore with 488 nm laser, and to collect emitting fluorescent signals in 530/30 nm. The generated raw data were analyzed by Flowjo™ 10 (BD, USA).

[2] = tested on: EGFR-positive A431 cells; assay: Live cell confocal imaging of binding to A431 cells; type: cell-based; details: confocal fluorescence microscopy, 100 nM, 30 min on ice; FIG. 21
Method: ZEGFR-FC-GFP staining of the membrane was much brighter than that for GFP when the top left panel of each block is compared. The plasma membrane was stained with PKH26 red-fluorescent dye and is shown in the lower left panel and merged image of each block. Scale bar=20 μm.
To visualize ZEGFR-Fc-GFP binding activities, A431 and MCF-7 cells were seeded on an 8-well chamber slide (ibidi, USA) and incubated at 37° C. under 5% CO2 overnight. The cells were stained with 2 μM PKH26 red-fluorescent dye (Sigma, USA) for 10 min at 37° C. The stained cells were then incubated with ZEGFR-Fc-GFP (100nM) and GFP (100nM) on ice for 30 min. After incubation, the cells were washed with chilled PBS for three times and fixed with cold 4% formaldehyde for 15 min. The fixed cells were imaged by the LSM 980 confocal microscope (Zeiss, Germany). Microscopic key settings are as follows: 1) excitation laser wavelengths: 488 nm and 561 nm; 2) emission fillers: 507-552 nm and 575-620 nm; 3) imaging mode: Z-stack. The 3D Z-stack images were processed into 2D images by the technique MIP (maximum intensity projection) using the Zen software (Zeiss, Germany).

In the case of “ZEGFR-Fc-GFP: dual-ligated product of dimeric fusion protein ZEGFR-Fc-NQL (affibody ZEGFR and IgG Fc domain) with GI-GGGSGGGS-GFP”, the “binding towards A431 cells” value [1] is reported as “specific binding” and the “staining of the membrane compared with GFP” value [2] is reported as “much brighter”.

Source: patent US20250270610A1, “Improving the Efficiency of PAL-Catalyzed Protein Ligation By A Cascade Enzymatic Scheme” (priority 2022, published 2025)
